Results taken from DBAASP.
Values after ≈ are worked out from the molar mass of the structure shown. One block for each compound: values may come before it.

How the values were obtained:
Test in all cases: ≥ marks a high value that may be exact or a test limit, other limits are often not marked, values filed in µg/mL are converted to µM
[1] = system: Cronobacter sakazakii DPC 6440
[2] = system: Listeria monocytogenes LO28
Escherichia coli = system: Escherichia coli
Listeria monocytogenes = system: Listeria monocytogenes
[3] = system: Salmonella enterica subsp. enterica serovar Paratyphi A
[4] = system: Staphylococcus aureus 007
[5] = system: Staphylococcus aureus A170
[6] = system: Staphylococcus aureus A172
[7] = system: Staphylococcus epidermidis
Escherichia coli DC2 = system: Escherichia coli DC2
Escherichia coli K-12 = system: Escherichia coli K-12
[8] = system: Staphylococcus aureus UAMS-1
Staphylococcus aureus = system: Staphylococcus aureus
[9] = system: Acinetobacter baumannii CICC 22934
Bacillus cereus AS1.126 = system: Bacillus cereus AS1.126
[10] = system: Enterobacter cloacae CGMCC 1.58
[11] = system: Enterococcus faecalis CGMCC 1.595
[12] = system: Enterococcus faecium CGMCC 1.2334
Escherichia coli AS1.349 = system: Escherichia coli AS1.349
[13] = system: Klebsiella aerogenes CGMCC 1.876
[14] = system: Klebsiella pneumoniae subsp. pneumoniae CGMCC 1.176
[15] = system: Lactococcus lactis AS1.1690
[16] = system: Proteus mirabilis CICC 22931
[17] = system: Pseudomonas aeruginosa CGMCC 1.860
[18] = system: Staphylococcus aureus AS1.72
[19] = system: Acinetobacter calcoaceticus
Candida albicans = system: Candida albicans
[20] = system: Escherichia coli ATCC 25922
Pseudomonas aeruginosa = system: Pseudomonas aeruginosa
Streptococcus agalactiae = system: Streptococcus agalactiae
[21] = system: Xanthomonas axonopodis pv. glycines ISBF 327

Structure (SMILES): CC[C@H](C)[C@H](NC(=O)[C@H](CCCCN)NC(=O)[C@H](CCC(=O)O)NC(=O)[C@H](CCCCN)NC(=O)[C@H](CO)NC(=O)[C@H](CCCCN)NC(=O)[C@H](CCCN=C(N)N)NC(=O)[C@H](Cc1ccccc1)NC(=O)[C@H](Cc1ccccc1)NC(=O)[C@H](CC(=O)O)NC(=O)CNC(=O)[C@H](CC(C)C)NC(=O)[C@@H](N)CC(C)C)C(=O)NCC(=O)N[C@@H](CCCCN)C(=O)N[C@@H](CCC(=O)O)C(=O)N[C@@H](Cc1ccccc1)C(=O)N[C@@H](CCCCN)C(=O)N[C@@H](CCCN=C(N)N)C(=O)N[C@H](C(=O)N[C@H](C(=O)N[C@@H](CCC(N)=O)C(=O)N[C@@H](CCCN=C(N)N)C(=O)O)C(C)C)[C@@H](C)CC [LLGDFFRKSKEKIGKEFKRIVQR]
- MIC (Escherichia coli DC2): 9 µM (≈ 25.4 µg/mL)
- MIC (Escherichia coli K-12): ≥ 160 µM
- MIC [8]: ≥ 160 µM
- MIC (Staphylococcus aureus): > 24 µM

Structure (SMILES): CC(C)C[C@H](NC(=O)CNC(=O)[C@H](Cc1ccccc1)NC(=O)[C@H](CCCN=C(N)N)NC(=O)[C@H](CCCN=C(N)N)NC(=O)[C@H](CC(C)C)NC(=O)[C@H](Cc1cnc[nH]1)NC(=O)[C@H](CCCN=C(N)N)NC(=O)CNC(=O)[C@@H](NC(=O)[C@H](C)NC(=O)[C@@H](N)CO)C(C)C)C(=O)N[C@@H](CCCN=C(N)N)C(=O)N[C@@H](CCCCN)C(=O)N[C@@H](Cc1cnc[nH]1)C(=O)N[C@@H](CCCN=C(N)N)C(=O)N[C@@H](CCCCN)C(=O)N[C@@H](Cc1cnc[nH]1)C(=O)O [SAVGRHLRRFGLRKHRKH]
- MIC [9]: ≥ 100 µM
- MIC (Bacillus cereus AS1.126): 6.25 µM (≈ 13.8 µg/mL)
- MIC [10]: ≥ 100 µM
- MIC [11]: 12.5 µM (≈ 27.6 µg/mL)
- MIC [12]: 12.5 µM (≈ 27.6 µg/mL)
- MIC (Escherichia coli AS1.349): ≥ 100 µM
- MIC [13]: ≥ 100 µM
- MIC [14]: ≥ 100 µM
- MIC [15]: 18.8 µM (≈ 41.5 µg/mL)
- MIC [16]: ≥ 100 µM
- MIC [17]: ≥ 100 µM
- MIC [18]: 9.38 µM (≈ 20.7 µg/mL)

Other lines, results leading:

- MIC [1]: ≥ 156 µM
- MIC [2]: ≥ 39.1 µM
Structure (SMILES): CC[C@H](C)[C@H](NC(=O)[C@@H](N)Cc1c[nH]c2ccccc12)C(=O)N[C@@H](CCC(N)=O)C(=O)N1CCC[C@H]1C(=O)N[C@@H](C)C(=O)N[C@H](C(=O)N[C@@H](CCCCN)C(=O)N[C@H](C(=O)N[C@H](C(=O)N1CCC[C@H]1C(=O)N[C@@H](Cc1ccc(O)cc1)C(=O)N[C@H](C(=O)N[C@@H](CCCN=C(N)N)C(=O)N[C@@H](Cc1ccc(O)cc1)C(=O)N[C@@H](CC(C)C)C(=O)O)C(C)C)[C@@H](C)CC)C(C)C)[C@@H](C)O [WIQPATKVIPYVRYL]

- MIC (Escherichia coli): 11 µM (≈ 20 µg/mL)
- MIC (Listeria monocytogenes): 5.52 µM (≈ 9.99 µg/mL)
- MIC [3]: 11 µM (≈ 20 µg/mL)
- MIC [4]: 5.52 µM (≈ 9.99 µg/mL)
- MIC [5]: 11 µM (≈ 20 µg/mL)
- MIC [6]: 13.8 µM (≈ 25 µg/mL)
- MIC [7]: 3.86 µM (≈ 7 µg/mL)
Structure (SMILES): CC[C@H](C)[C@H](NC(=O)[C@@H]1CCCN1C(=O)[C@H](CC(C)C)NC(=O)[C@H](CC(C)C)NC(=O)[C@H](Cc1ccc(O)cc1)NC(=O)[C@H](CCCCN)NC(=O)[C@@H](N)CCCCN)C(=O)N[C@H](C(=O)NCC(=O)N[C@@H](CC(N)=O)C(=O)N[C@@H](CC(C)C)C(=O)N[C@@H](CC(C)C)C(=O)N[C@@H](CCCCN)C(=O)N[C@@H](CO)C(=O)N[C@@H](CC(C)C)C(=O)N[C@@H](CC(C)C)C(N)=O)C(C)C [KKYLLPIVGNLLKSLL]

- MIC [19]: 3.7 µM (≈ 7.83 µg/mL)
- MIC (Candida albicans): 15.1 µM (≈ 31.9 µg/mL)
- MIC [20]: 15 µM (≈ 31.7 µg/mL)
- MIC (Pseudomonas aeruginosa): 60.4 µM (≈ 128 µg/mL)
- MIC (Staphylococcus aureus): 7.6 µM (≈ 16.1 µg/mL)
- MIC (Streptococcus agalactiae): 1.9 µM (≈ 4.02 µg/mL)
- MIC [21]: ≥ 121 µM
Structure (SMILES): CC[C@H](C)[C@H](NC(=O)[C@H](C)NC(=O)[C@H](Cc1cnc[nH]1)NC(=O)[C@@H]1CCCN1C(=O)[C@@H](NC(=O)[C@H](CC(C)C)NC(=O)[C@H](CO)NC(=O)[C@H](CC(C)C)NC(=O)[C@@H](N)Cc1ccccc1)[C@@H](C)CC)C(=O)N[C@@H](CC(N)=O)C(=O)N[C@@H](C)C(=O)N[C@H](C(=O)N[C@@H](CO)C(=O)N[C@H](C(=O)N[C@@H](CC(C)C)C(=O)N[C@H](C(=O)N[C@@H](Cc1cnc[nH]1)C(=O)N[C@@H](Cc1cnc[nH]1)C(=O)N[C@@H](Cc1ccccc1)C(N)=O)C(C)C)[C@@H](C)O)C(C)C [FLSLIPHAINAVSTLVHHF]
